Test results published in PubChem BioAssay AID2060617 (Molecular Pharmacology Branch, DTP, NCI, 2025).
Where “and” joins values, the source holds several entries; their conditions need not be identical. Equal entries are not always repeated.

Tested on: 485368-065-R4-J2-PDC spheroids with HUVEC/MSC, viability
Test: Anticancer human tumor 485368-065-R4-J2-PDC patient-derived pancreatic carcinoma cell line growth inhibition [CLK]
Conditions: for viability, T/C: stronger effect = lower value
Outline: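 Patient-derived tumor cells grown as complex spheroids with HUVEC endothelial cells and mesenchymal stem cells, treated with drug combinations. Concentrations descend in half-log steps from near clinical Cmax, or from 10 microM if Cmax unknown.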

[1] = curve of first compound, second compound 0.0316 µM
[2] = curve of first compound, second compound 0.1 µM
[3] = curve of first compound, second compound 0.316 µM
[4] = curve of first compound, second compound 1 µM
[5] = curve of first compound, second compound 3.16 µM
[6] = curve of first compound, second compound 10 µM
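Note: spheroids exposed to compounds for seven days.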
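Throughout, for viability, T/C: 100% = DMSO vehicle control wells.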

CC(CO)NC(=O)c1cc(-c2ccc(Cl)cc2)nn(-c2cnn(C)c2)c1=O (stereo unspecified) + CN1CCN(c2cc(C(=O)Nc3cc4cc(-c5cnn(C)c5)ccc4cn3)ccn2)CC1
IC50 [1]: > 10 µM | IC50 [2]: > 10 µM | IC50 [3]: > 10 µM | IC50 [4]: < 0.0316 µM | IC50 [5]: < 0.0316 µM | IC50 [6]: < 0.0316 µM | viability, T/C (second compound 0.0316 µM, first compound 0.0316 µM): 91.7% | viability, T/C (second compound 0.0316 µM, first compound 0.1 µM): 106% | viability, T/C (second compound 0.0316 µM, first compound 0.316 µM): 99.8% | viability, T/C (second compound 0.0316 µM, first compound 1 µM): 105% | viability, T/C (second compound 0.0316 µM, first compound 3.16 µM): 104% | viability, T/C (second compound 0.0316 µM, first compound 10 µM): 101% | viability, T/C (second compound 0.1 µM, first compound 0.0316 µM): 114% | viability, T/C (second compound 0.1 µM, first compound 0.1 µM): 116% | viability, T/C (second compound 0.1 µM, first compound 0.316 µM): 108% | viability, T/C (second compound 0.1 µM, first compound 1 µM): 116% | viability, T/C (second compound 0.1 µM, first compound 3.16 µM): 105% | viability, T/C (second compound 0.1 µM, first compound 10 µM): 99.3% | viability, T/C (second compound 0.316 µM, first compound 0.0316 µM): 87.2% | viability, T/C (second compound 0.316 µM, first compound 0.1 µM): 87.9% | viability, T/C (second compound 0.316 µM, first compound 0.316 µM): 91% | viability, T/C (second compound 0.316 µM, first compound 1 µM): 82.5% | viability, T/C (second compound 0.316 µM, first compound 3.16 µM): 78.1% | viability, T/C (second compound 0.316 µM, first compound 10 µM): 79.1% | viability, T/C (second compound 1 µM, first compound 0.0316 µM): 1.07% | viability, T/C (second compound 1 µM, first compound 0.1 µM): 2.15% | viability, T/C (second compound 1 µM, first compound 0.316 µM): 1.7% | viability, T/C (second compound 1 µM, first compound 1 µM): 1.69% | viability, T/C (second compound 1 µM, first compound 3.16 µM): 1.72% | viability, T/C (second compound 1 µM, first compound 10 µM): 2.66% | viability, T/C (second compound 3.16 µM, first compound 0.0316 µM): 2.09% | viability, T/C (second compound 3.16 µM, first compound 0.1 µM): 1.46% | viability, T/C (second compound 3.16 µM, first compound 0.316 µM): 1.34% | viability, T/C (second compound 3.16 µM, first compound 1 µM): 1.32% | viability, T/C (second compound 3.16 µM, first compound 3.16 µM): 1.45% | viability, T/C (second compound 3.16 µM, first compound 10 µM): 3.08% | viability, T/C (second compound 10 µM, first compound 0.0316 µM): 1.44% | viability, T/C (second compound 10 µM, first compound 0.1 µM): 4.18% | viability, T/C (second compound 10 µM, first compound 0.316 µM): 1.35% | viability, T/C (second compound 10 µM, first compound 1 µM): 1.26% | viability, T/C (second compound 10 µM, first compound 3.16 µM): 2.31% | viability, T/C (second compound 10 µM, first compound 10 µM): 1.01%

COc1ccc([C@@H](O)c2cc(-c3ncnc4cc(N5CCOCC5)ccc34)c(F)cc2Cl)nn1
viability, T/C (compound 0.0316 µM): 97% and 105% | viability, T/C (compound 0.1 µM): 94.9% and 95.8% | viability, T/C (compound 0.316 µM): 103% and 96.8% | viability, T/C (compound 1 µM): 105% and 114% | viability, T/C (compound 3.16 µM): 104% and 102% | viability, T/C (compound 10 µM): 82.6% and 77.8% | IC50 (curve of compound): > 10 µM

C=CC(=O)Nc1cc(Nc2nccc(-c3cn(C)c4ccccc34)n2)c(OC)cc1N(C)CCN(C)C + CN1CCN(c2cc(C(=O)Nc3cc4cc(-c5cnn(C)c5)ccc4cn3)ccn2)CC1
IC50 [1]: > 0.3 µM | IC50 [2]: > 0.3 µM | IC50 [3]: > 0.3 µM | IC50 [4]: < 0.000949 µM | IC50 [5]: < 0.000949 µM | IC50 [6]: < 0.000949 µM | viability, T/C (second compound 0.0316 µM, first compound 0.000949 µM): 106% | viability, T/C (second compound 0.0316 µM, first compound 0.003 µM): 113% | viability, T/C (second compound 0.0316 µM, first compound 0.00949 µM): 99.1% | viability, T/C (second compound 0.0316 µM, first compound 0.03 µM): 101% | viability, T/C (second compound 0.0316 µM, first compound 0.0949 µM): 103% | viability, T/C (second compound 0.0316 µM, first compound 0.3 µM): 100% | viability, T/C (second compound 0.1 µM, first compound 0.000949 µM): 114% | viability, T/C (second compound 0.1 µM, first compound 0.003 µM): 113% | viability, T/C (second compound 0.1 µM, first compound 0.00949 µM): 112% | viability, T/C (second compound 0.1 µM, first compound 0.03 µM): 113% | viability, T/C (second compound 0.1 µM, first compound 0.0949 µM): 105% | viability, T/C (second compound 0.1 µM, first compound 0.3 µM): 103% | viability, T/C (second compound 0.316 µM, first compound 0.000949 µM): 75.7% | viability, T/C (second compound 0.316 µM, first compound 0.003 µM): 83.8% | viability, T/C (second compound 0.316 µM, first compound 0.00949 µM): 84.6% | viability, T/C (second compound 0.316 µM, first compound 0.03 µM): 85.3% | viability, T/C (second compound 0.316 µM, first compound 0.0949 µM): 82.7% | viability, T/C (second compound 0.316 µM, first compound 0.3 µM): 74.2% | viability, T/C (second compound 1 µM, first compound 0.000949 µM): 1.06% | viability, T/C (second compound 1 µM, first compound 0.003 µM): 1.02% | viability, T/C (second compound 1 µM, first compound 0.00949 µM): 0.96% | viability, T/C (second compound 1 µM, first compound 0.03 µM): 0.9% | viability, T/C (second compound 1 µM, first compound 0.0949 µM): 1.6% | viability, T/C (second compound 1 µM, first compound 0.3 µM): 0.54% | viability, T/C (second compound 3.16 µM, first compound 0.000949 µM): 1.42% | viability, T/C (second compound 3.16 µM, first compound 0.003 µM): 2.3% | viability, T/C (second compound 3.16 µM, first compound 0.00949 µM): 1.16% | viability, T/C (second compound 3.16 µM, first compound 0.03 µM): 2.05% | viability, T/C (second compound 3.16 µM, first compound 0.0949 µM): 2.29% | viability, T/C (second compound 3.16 µM, first compound 0.3 µM): 2.5% | viability, T/C (second compound 10 µM, first compound 0.000949 µM): 1.61% | viability, T/C (second compound 10 µM, first compound 0.003 µM): 3.07% | viability, T/C (second compound 10 µM, first compound 0.00949 µM): 1.3% | viability, T/C (second compound 10 µM, first compound 0.03 µM): 1.38% | viability, T/C (second compound 10 µM, first compound 0.0949 µM): 2.42% | viability, T/C (second compound 10 µM, first compound 0.3 µM): 2.16%
